Earlier results, collected in patent publication US20180125800A1, “Stable Formulation for Parenteral Administration of Tapentadol” (Gruenenthal GmbH, priority 2015, published 2018).

Settings: more pronounced at higher pH values

In the case of `CC[C@@H](c1cccc(O)c1)[C@@H](C)CN(C)C` [Tapentadol, (1R,2R)-3-(3-dimethylamino-1-ethyl-2-methyl-propyl)-phenol], the antimicrobial properties is listed as “exhibits antimicrobial properties”.
